Test results as given in ChEMBL document CHEMBL1201862, “PubChem BioAssay data set” (2004).
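How tested: cells in 96-well plates exposed to compound for 48 hours at five concentrations. At the GI50, growth is halved.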 The source made the active and inactive calls. Cut-off read from the data, not from the text of the source: active = GI50 up to about 1.1 µM and inactive = higher.

Key:
Assay in all cases: NCI tumour cell line growth inhibition, 48 h
[1] = test system: NCI-H226
[2] = test system: 786-0
[3] = test system: SN12C
[4] = test system: OVCAR-5
[5] = test system: A498
[6] = test system: OVCAR-8
[7] = test system: HOP-92
[8] = test system: HOP-62
[9] = test system: M14
[10] = test system: UO-31
[11] = test system: EKVX
[12] = test system: SK-MEL-2
[13] = test system: CAKI-1
[14] = test system: UACC-257
[15] = test system: SF-295
[16] = test system: RPMI-8226
[17] = test system: IGROV-1
[18] = test system: SR
[19] = test system: HCT-116

`COC(=O)C1CC(C(=O)OC)c2nc3cc(C)ccc3nc21` (stereo not given) was tested, and the GI50 [1] was > 100 µM (inactive), the GI50 [2] was > 100 µM (inactive) and the GI50 [3] was > 100 µM (inactive). For the same compound, the GI50 [4] was > 100 µM (inactive), the GI50 [5] was > 100 µM (inactive) and the GI50 [6] was > 100 µM (inactive). The GI50 [7] was > 100 µM (inactive), the GI50 [8] was > 100 µM (inactive) and the GI50 [9] was > 100 µM (inactive). The GI50 [10] was > 100 µM (inactive), the GI50 [11] was > 100 µM (inactive) and the GI50 [12] was > 100 µM (inactive). For the same compound, the GI50 [13] was > 100 µM (inactive), the GI50 [14] was 58.3 µM (inactive) and the GI50 [15] was > 100 µM (inactive). The GI50 [16] was > 100 µM (inactive) and the GI50 [17] was > 100 µM (inactive).

For `CN(C)NC(=O)/C(=C/c1ccc(Cl)cc1)NC(=O)c1ccccc1`, the GI50 [1] was > 100 µM (inactive), the GI50 [2] was > 100 µM (inactive) and the GI50 [3] was > 100 µM (inactive). For the same compound, the GI50 [4] was > 100 µM (inactive), the GI50 [5] was > 100 µM (inactive) and the GI50 [6] was > 100 µM (inactive). The GI50 [7] was > 100 µM (inactive), the GI50 [8] was > 100 µM (inactive) and the GI50 [9] was > 100 µM (inactive). For the same compound, the GI50 [18] was 39.9 µM (inactive), the GI50 [19] was > 100 µM (inactive) and the GI50 [10] was 57.1 µM (inactive). The GI50 [11] was > 100 µM (inactive), the GI50 [12] was > 100 µM (inactive) and the GI50 [13] was > 100 µM (inactive). For the same compound, the GI50 [14] was > 100 µM (inactive), the GI50 [15] was > 100 µM (inactive) and the GI50 [16] was > 100 µM (inactive). For the same compound, the GI50 [17] was > 100 µM (inactive).

In the case of `NCCCC(N/C=C1/N=C(c2ccccc2)OC1=O)C(=O)O` (stereo not given), the GI50 [1] is reported as > 100 µM (inactive), the GI50 [2] is reported as > 100 µM (inactive) and the GI50 [3] is reported as > 100 µM (inactive). The GI50 [4] was > 100 µM (inactive), the GI50 [5] was > 100 µM (inactive) and the GI50 [6] was > 100 µM (inactive). The GI50 [7] was > 100 µM (inactive), the GI50 [8] was > 100 µM (inactive) and the GI50 [9] was > 100 µM (inactive). The GI50 [18] was 87.3 µM (inactive), the GI50 [19] was 40.3 µM (inactive) and the GI50 [10] was > 100 µM (inactive). For the same compound, the GI50 [11] was > 100 µM (inactive), the GI50 [12] was > 100 µM (inactive) and the GI50 [14] was > 100 µM (inactive). For the same compound, the GI50 [15] was > 100 µM (inactive), the GI50 [16] was 45.5 µM (inactive) and the GI50 [17] was > 100 µM (inactive).

In the case of `COC(=O)C1=Cc2cc(OC)c(OC)cc2[C@H](c2ccc(OC)c(OC)c2)C1C(=O)OC` (stereo not given in full), the GI50 [1] is reported as > 100 µM (inactive), the GI50 [2] is reported as > 100 µM (inactive) and the GI50 [3] is reported as > 100 µM (inactive). The GI50 [4] was > 100 µM (inactive), the GI50 [5] was > 100 µM (inactive) and the GI50 [6] was > 100 µM (inactive). For the same compound, the GI50 [7] was 45.8 µM (inactive), the GI50 [8] was > 100 µM (inactive) and the GI50 [9] was > 100 µM (inactive). The GI50 [18] was > 100 µM (inactive), the GI50 [19] was > 100 µM (inactive) and the GI50 [10] was > 100 µM (inactive). For the same compound, the GI50 [11] was > 100 µM (inactive), the GI50 [13] was > 100 µM (inactive) and the GI50 [14] was > 100 µM (inactive). For the same compound, the GI50 [15] was > 100 µM (inactive), the GI50 [16] was > 100 µM (inactive) and the GI50 [17] was > 100 µM (inactive).

`Cc1ccc2[nH]c3c4c5ccccc5nc-4c[nH]c3c2c1` was tested, and the GI50 [1] was 16.1 µM (inactive), the GI50 [2] was 17.1 µM (inactive) and the GI50 [3] was 16.3 µM (inactive). The GI50 [4] was 17.1 µM (inactive), the GI50 [6] was 18.6 µM (inactive) and the GI50 [8] was 10 µM (inactive). The GI50 [9] was 18.2 µM (inactive), the GI50 [19] was 17.1 µM (inactive) and the GI50 [10] was 16.7 µM (inactive). For the same compound, the GI50 [11] was 15.2 µM (inactive), the GI50 [12] was 18.9 µM (inactive) and the GI50 [13] was 15.8 µM (inactive). For the same compound, the GI50 [14] was 18.1 µM (inactive), the GI50 [15] was 17.2 µM (inactive) and the GI50 [16] was 18.1 µM (inactive). The GI50 [17] was 15 µM (inactive).

`CCOC(=O)C(=O)Nc1ccc([N+](=O)[O-])cc1C#N` was tested, and the GI50 [1] was > 100 µM (inactive), the GI50 [2] was > 100 µM (inactive) and the GI50 [3] was > 100 µM (inactive). For the same compound, the GI50 [4] was > 100 µM (inactive), the GI50 [6] was > 100 µM (inactive) and the GI50 [7] was > 100 µM (inactive). The GI50 [8] was > 100 µM (inactive), the GI50 [9] was > 100 µM (inactive) and the GI50 [18] was > 100 µM (inactive). For the same compound, the GI50 [19] was > 100 µM (inactive), the GI50 [10] was > 100 µM (inactive) and the GI50 [11] was > 100 µM (inactive). The GI50 [12] was > 100 µM (inactive), the GI50 [13] was > 100 µM (inactive) and the GI50 [14] was > 100 µM (inactive). For the same compound, the GI50 [15] was > 100 µM (inactive), the GI50 [16] was > 100 µM (inactive) and the GI50 [17] was > 100 µM (inactive).

With `COc1cc([C@@H]2c3cc4c(cc3[C@@H](Nc3ccc(NC(=O)c5cc(NC(=O)c6cc([N+](=O)[O-])cn6C)cn5C)cc3)[C@H]3COC(=O)[C@H]23)OCO4)cc(OC)c1O` the GI50 [1] was 0.334 µM (active), the GI50 [2] was 0.593 µM (active) and the GI50 [3] was 3.73 µM (inactive). The GI50 [4] was > 61.4 µM (inactive), the GI50 [5] was 1.35 µM (inactive) and the GI50 [6] was 0.76 µM (active). For the same compound, the GI50 [7] was 0.885 µM (active), the GI50 [8] was 0.361 µM (active) and the GI50 [9] was 1.78 µM (inactive). The GI50 [18] was 0.0159 µM (active), the GI50 [19] was 0.149 µM (active) and the GI50 [10] was 5.22 µM (inactive). For the same compound, the GI50 [11] was > 40.1 µM (inactive), the GI50 [12] was > 100 µM (inactive) and the GI50 [13] was 0.323 µM (active). For the same compound, the GI50 [14] was 0.687 µM (active), the GI50 [15] was 1.57 µM (inactive) and the GI50 [16] was 0.0324 µM (active). For the same compound, the GI50 [17] was 0.216 µM (active).
